From US20260218126A1, “METHOD FOR PRODUCING RETINAL TISSUE” (RACTHERA CO., LTD., priority 2023, published 2026)

What was measured:
Format in all cases: cell-based
KhES-1_Rx::Venus cells = assay: Retinal differentiation induction with or without LDN-193189 addition (GFP and Chx10 expression)
Procedure: • 1. KhES-1_Rx::Venus cells (KhES-1 cells obtained by knocking a GFP variant called Venus in the locus of a retinal marker Rx) that reached optimal confluence were collected by removing the medium and washed twice with 1 mL of PBS (−). • 2. The cells were incubated at 37° C. and 5% CO2 with 0.5×TrypLE™ Select added at 500 μL/well. • 3. After the 0.5×TrypLE™ Select was removed, PBS (−) was added to the well at 2 mL/well and the cells were peeled off by spraying PBS (−). • 4. The cells were collected into a 15 mL Falcon tube and the cell number was counted. • 5. The required number of cells (5×10^5 cells per dish) was transferred to another tube and centrifuged at 1000 rpm at 20° C. for 5 minutes. • 6. After the supernatant was removed, the cells were suspended with AK02N+Y to provide a cell suspension of 5×10^5 cells/200 μL AK02N+Y. • 7. The iMatrix coating solution within the PDMS sheet was removed with an aspirator and the cell suspension (5×10^5 cells/200 μL AK02N+Y) was added to the circle and incubated at 37° C. for 30 minutes. • 8. The PDMS sheet was removed from the dish with sterilized tweezers. • 9. The cells was cultured at 37° C. and 5% CO2 with 300 μL of AK02 N+Y added to the dish. <Day 1: Medium Replacement with AK02+PS> • 1. The whole medium was replaced with 1 mL of gfCDM (10% KSR) containing LDN-193189 (04-0074-02, ReproCELL Inc.) (hereinafter referred to as LDN). (final concentration of 100 nM LDN). […] Expressions of Chx10, Recoverin, FOXG1, Crx, Tuj1, Zo-1, and Pax6 were evaluated by immunostaining with primary antibodies specific for the respective markers and secondary antibodies suitable for the primary antibodies. The effect of LDN-193189, a BMP signaling inhibitor, on the differentiation induction was evaluated. […] Also, expressions of GFP and Chx10 at Day 18 were evaluated in the patterned and non-patterned cells with or without the LDN-193189 addition. The Chx10 expression was assessed by quantitative PCR (using HPRT1 as an endogenous control) and immunostaining.

[1] = test system: human iPS cells (LPF11 line); assay: Duration of action of Y-27632 at cell seeding in patterning culture (LPF11 line); conditions: for percentage of Chx10-positive areas on the sheet surface: ImageJ
Procedure: The percentage of area covered by a retinal tissue on the region A may be measured by any methods, and for example, can be measured by staining the retinal tissue. For example, it is measured by staining expression of the retinal cell marker described above (such as Chx10) (e.g., by immunostaining with a fluorescently labeled anti-Chx10 antibody). Then, by using imaging software such as ImageJ software (NIH), the ratio of the area of the retinal cell marker-positive region to the area of the region A can be calculated.
(§1) For patterning, a droplet (1 cm in diameter) of a solution containing 0.785 μl of Laminin511-E8 (Nippi. Inc.) in 100 μl of PBS (Laminin51l-E8 concentration of 3.925 ng/μl) was made in the center of the wells of a 12-well plate (Iwaki, for cell culture, culture area 3.8 cm^2) and then incubated at 37° C. or room temperature for 1 to 3 hours to prepare 12-well-plates for patterning culture (Laminin511-E8: 0.5 μg/cm^2).
(§2) First, a 12-well plate for patterning culture prepared by the method described in Example 1 was provided, and subconfluent human iPS cells (LPF11 and DSP-SQ lines) were washed with PBS and dispersed into single cells using TrypLE Select (Life Technologies). The human iPS cells dispersed into single cells were then seeded into one well of the patterning culture plate at a density of 2.0×10^5 cells/cm^2 and cultured under feeder-free condition in Stemfit medium in the presence of Y-27632 (ROCK inhibitor, 10 μM). Then, after 2, 4, 8, 16, or 32 hours culture, the medium was replaced with 2 ml of StemFit medium without Y-27632.
(§3) The patterning culture was then performed as described in Example 1, and on Day 20 of seeding, cells were fixed with 4% paraformaldehyde and bright-field images were obtained with a fluorescence microscope (Keyence). […] The percentage of Chx10-positive areas on the sheet surface was calculated using ImageJ software (NIH) and was 91% for sheets with Y-27632 for 32 hours, compared to 97% or more for sheets with Y-27632 for 16 hours or less (16 hours: 97%, 8 hours: 99%, 4 hours: 98%, 2 hours: 99%).

[2] = test system: human iPS cells (DSP-SQ line); assay: Duration of action of Y-27632 at cell seeding in patterning culture (DSP-SQ line); conditions: shortening the duration of action of Y-27632; Day 20; immunostaining
Procedure: as §1
First, a 12-well plate for patterning culture prepared by the method described in Example 1 was provided, and subconfluent human iPS cells (LPF11 and DSP-SQ lines) were washed with PBS and dispersed into single cells using TrypLE Select (Life Technologies). […]
as §3

[3] = test system: human iPS cells (LPF11 line); assay: BMP4 concentration for retinal differentiation by patterning culture (Rx immunostaining, real-time PCR); conditions: Day 20
Procedure: as §2, with “line)” for “and DSP-SQ lines)”, “Two” for “Then, after 2, 4, 8, 16, or 32”, “later,” for “culture,”, “Y-27632 and patterning culture was performed as described in Example 1.” for “Y-27632.”
On Day 7 of patterning culture, the medium was replaced with serum-free medium (gfCDM+KSR) containing exogenous human recombinant BMP4 (R&D) at a final concentration of 0, 1.5, 3, 6, or 12 nM. Thereafter, half of the medium was replaced with serum-free medium (gfCDM+KSR) without human recombinant BMP4 every 2 to 3 days. […]
Total RNA was then extracted from the retinal tissue using a spin column (QIAGEN, RNeasy Micro kit) by the method described in the kit. The concentration of total RNA was measured by a measuring device (Nanodrop, Thermo scientific) and then reverse transcribed into cDNA using reverse transcriptase and primers (Reverse Transcription Master Mix Kit, Fluidigm). […] The Pre-Run reaction solutions were then injected into a flow-through multi-well (96. 96 Dynamic Array IFC, Fluidigm) using an IFC Controller HX (Fluidigm), and the expression levels of marker genes for neural retina and for by-products other than neural retina were determined by real-time PCR using a multi-sample real-time PCR system (Biomark HD, Fluidigm).
Specifically, the ΔCt value was calculated from the difference between the Ct value of the target gene and the Ct value of GAPDH, the gene used as the internal standard, and the ratio of expression level of each gene was calculated from the difference in ΔCt between samples (ΔΔCt).

Molecule: c1ccc2c(-c3cnn4cc(-c5ccc(N6CCNCC6)cc5)cnc34)ccnc2c1 [LDN-193189, 4-[6-(4-Piperazin-1-ylphenyl)pyrazolo[1,5-a]pyrimidin-3-yl]quinoline]
- GFP expression (KhES-1_Rx::Venus cells; Day 11, patterning culture, LDN-193189 100 nM from Day 3 to Day 8, compared to cells without LDN-193189): uniform GFP expression
- Chx10 expression (KhES-1_Rx::Venus cells; Day 18, without patterning culture, quantitative PCR (HPRT1 control) and immunostaining, with vs without LDN-193189 addition): increased
- GFP expression (KhES-1_Rx::Venus cells; Day 18, without patterning culture, with vs without LDN-193189 addition): increased

Molecule: C[C@@H](N)[C@H]1CC[C@H](C(=O)Nc2ccncc2)CC1 [Y-27632]
- survival of human iPS cells after removing Y-27632 ([1]; Y-27632 10 μM for 2, 4, 8, 16 or 32 hours, LPF11 and DSP-SQ lines): survived
- percentage of Chx10-positive areas on the sheet surface ([1]; Y-27632 10 μM for 2 hours, Day 20): 99%
- percentage of Chx10-positive areas on the sheet surface ([1]; Y-27632 10 μM for 4 hours, Day 20): 98%
- percentage of Chx10-positive areas on the sheet surface ([1]; Y-27632 10 μM for 8 hours, Day 20): 99%
- percentage of Chx10-positive areas on the sheet surface ([1]; Y-27632 10 μM for 16 hours or less, Day 20): ≥ 97%
- percentage of Chx10-positive areas on the sheet surface ([1]; Y-27632 10 μM for 16 hours, Day 20): 97%
- percentage of Chx10-positive areas on the sheet surface ([1]; Y-27632 10 μM for 32 hours, Day 20): 91%
- holes on the cell sheet surface ([1]; longer duration of action of Y-27632 (2 to 32 hours), Day 20, bright-field): the more holes were created
- Chx10-negative areas on the sheet surface [2]: fewer Chx10-negative areas

B1: BMP4: human recombinant BMP4 (R&D), BMP signaling activator (protein, UniProt P12644 293-408, looked up)
Bone morphogenetic protein 4: SPKHHSQRARKKNKNCRRHSLYVDFSDVGWNDWIVAPPGYQAFYCHGDCPFPLADHLNSTNHAIVQTLVNSVNSSIPKACCVPTELSAISMLYLDEYDKVVLKNYQEMVVEGCGCR
- expression of retinal progenitor cell marker Rx (immunostaining) ([3]; BMP4 3 to 12 nM compared to 1.5 nM): more strongly expressed
- expression of retinal progenitor cell marker genes Chx10 and Rx (relative mRNA, real-time PCR) ([3]; BMP4 3 to 12 nM compared to 1.5 nM, GAPDH internal standard): higher expression
- expression of Emx2, marker gene for unintended cells (relative mRNA, real-time PCR) ([3]; BMP4 3 to 12 nM): low and suppressed expression
